According to ChEMBL document CHEMBL1143608, “Novel C-17-heteroaryl steroidal CYP17 inhibitors/antiandrogens: synthesis, in vitro biological activity, pharmacokinetics, and antitumor activity in the LAPC4 human prostate cancer xenograft model” (J Med Chem, 2005):

What was measured:
[1] = Area under curve at 50 mg/kg upon subcutaneous administration was determined in mouse; n = 5; assay type: ADME, organism-based; design: dose 50 mg/kg, route subcutaneous; settings: in vivo, sc
[2] = Volume of distribution at 100 mg/kg upon subcutaneous administration was determined in mouse; n = 5; assay type: ADME, organism-based; design: dose 100 mg/kg, route subcutaneous; settings: in vivo, sc
[3] = Maximum concentration at 50 mg/kg upon subcutaneous administration was determined in mouse; n = 5; assay type: ADME, organism-based; design: dose 50 mg/kg, route subcutaneous; settings: in vivo, sc
[4] = Elimination rate constant at 50 mg/kg upon subcutaneous administration was determined in mouse; n = 5; assay type: ADME, organism-based; design: dose 50 mg/kg, route subcutaneous; settings: in vivo, sc
[5] = Volume of distribution at 50 mg/kg upon subcutaneous administration was determined in mouse; n = 5; assay type: ADME, organism-based; design: dose 50 mg/kg, route subcutaneous; settings: in vivo, sc
[6] = Time required for maximum concentration at 50 mg/kg upon subcutaneous administration was determined in mouse; n = 5; assay type: ADME, organism-based; design: dose 50 mg/kg, route subcutaneous; settings: in vivo, sc
[7] = Half life at 50 mg/kg upon subcutaneous administration was determined in mouse; n = 5; assay type: ADME, organism-based; design: dose 50 mg/kg, route subcutaneous; settings: in vivo, sc
[8] = Area under curve at 100 mg/kg upon subcutaneous administration was determined in mouse; n = 5; assay type: ADME, organism-based; design: dose 100 mg/kg, route subcutaneous; settings: in vivo, sc
[9] = molecular target: T1, 3-oxo-5-alpha-steroid 4-dehydrogenase 1 (Homo sapiens) (UniProt P18405); test: Inhibition of human steroid 5-alpha-reductase type I expressed in DU-145 cells using [1-beta-3H]-androstenedione at a concentration of 10 uM; assay type: functional, cell-based
T1 sequence (whole entry): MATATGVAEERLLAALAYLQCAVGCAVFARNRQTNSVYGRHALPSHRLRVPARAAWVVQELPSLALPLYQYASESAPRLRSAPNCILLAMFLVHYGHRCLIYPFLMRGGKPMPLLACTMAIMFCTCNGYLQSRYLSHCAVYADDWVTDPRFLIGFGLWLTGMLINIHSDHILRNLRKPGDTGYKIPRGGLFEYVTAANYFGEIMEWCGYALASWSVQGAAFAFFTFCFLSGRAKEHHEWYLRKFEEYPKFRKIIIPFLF

[10] = Time required for maximum concentration at 100 mg/kg upon subcutaneous administration was determined in mouse; n = 5; assay type: ADME, organism-based; design: dose 100 mg/kg, route subcutaneous; settings: in vivo, sc
[11] = Maximum concentration at 100 mg/kg upon subcutaneous administration was determined in mouse; n = 5; assay type: ADME, organism-based; design: dose 100 mg/kg, route subcutaneous; settings: in vivo, sc
[12] = Half life at 100 mg/kg upon subcutaneous administration was determined in mouse; n = 5; assay type: ADME, organism-based; design: dose 100 mg/kg, route subcutaneous; settings: in vivo, sc
[13] = molecular target: T2, 3-oxo-5-alpha-steroid 4-dehydrogenase 2 (Homo sapiens) (UniProt P31213); test: (§1) Inhibition of [1-beta-2beta-3H]- -testosterone binding to human steroid 5-alpha-reductase type 2 of BPH tissue at 10 uM; assay type: functional
T2 sequence (whole entry): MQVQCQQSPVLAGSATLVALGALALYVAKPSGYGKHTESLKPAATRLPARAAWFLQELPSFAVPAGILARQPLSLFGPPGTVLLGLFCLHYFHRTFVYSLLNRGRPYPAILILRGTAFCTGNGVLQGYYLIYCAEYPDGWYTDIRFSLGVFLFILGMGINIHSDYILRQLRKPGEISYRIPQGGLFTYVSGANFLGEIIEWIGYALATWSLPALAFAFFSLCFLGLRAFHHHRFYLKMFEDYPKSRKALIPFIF

[14] = […] at 50 mg/kg upon subcutaneous administration was determined in mouse; n = 5; assay type: ADME, organism-based; design: dose 50 mg/kg, route subcutaneous; settings: in vivo, sc
[15] = molecular target: T3, 3-oxo-5-alpha-steroid 4-dehydrogenase 2 (Homo sapiens, UniProt P31213); test: as §1; assay type: functional
T3 sequence (P31213 whole entry): T2 sequence (whole entry)

[16] = molecular target: T4, 3-oxo-5-alpha-steroid 4-dehydrogenase 1 (Homo sapiens, UniProt P18405); test: Inhibition of [1-beta-3H]-androstenedione binding to human steroid 5-alpha-reductase type I expressed in DU-145 cells at 10 uM; assay type: functional, cell-based
T4 sequence (P18405 whole entry): T1 sequence (whole entry)

[17] = molecular target: T1, 3-oxo-5-alpha-steroid 4-dehydrogenase 1 (Homo sapiens); test: Inhibition of [1-beta-3H]-androstenedione binding to human steroid 5-alpha-reductase type I expressed in DU-145 cells at 10 uM; ni=no inhibition up to 10 uM; assay type: functional, cell-based

Vd [2] [L/kg] | Kel [4] [h⁻¹] | T1/2 [7] [min] | AUC [8] [ng·h/mL] | inhibition [9] [%] | Tmax [10] [min] | Cmax [11] [ng/mL] | T1/2 [12] [min] | inhibition [13] [%] | inhibition [17] | SMILES | AUC [1] [ng·h/mL] | Cmax [3] [ng/mL] | Vd [5] [L/kg] | Tmax [6] [min] | MRT [14] [min] | k el [4] [s⁻¹] | half-life [7] [min] | IC50 [15] [µM] | IC50 [16] [µM]
3.27639 | 0.942 | 44.17 | 30200 | 4 | 30 | 32200 | 36.6 | 53 | – | C[C@]12CC[C@H](O)CC1=CCC1C2CC[C@]2(C)C(n3cnc4ccccc43)=CCC12 (some centres not stated) | 24000 | 16800 | 2.09899 | 30 | 65.4 | – | – | – | –
– | – | – | – | 21 | – | – | – | 56 | – | C[C@]12CCC(=O)C=C1CCC1C2CC[C@]2(C)C(n3nnc4ccccc43)=CCC12 (some centres not stated) | – | – | – | – | – | – | – | – | –
– | – | – | – | – | – | – | – | – | – | C[C@]12CCC(=O)C=C1CCC1C2CC[C@]2(C)C(n3cnc4ccccc43)=CCC12 (some centres not stated) | 10800 | 5150 | 4.207 | 60 | 80 | 0.000305 | 37.9 | 0.48 | 0.77
– | – | – | – | – | – | – | – | 17 | No inhibition | C[C@]12CC[C@H](O)CC1=CCC1C2CC[C@]2(C)C(n3nnc4ccccc43)=CCC12 (some centres not stated) | – | – | – | – | – | – | – | – | –
